{
  "source": "patent US20050084839A1",
  "about": "“Method for selecting oocytes by using a response to LPA stimulation” (Hitachi, Ltd., priority 2003, published 2005)",
  "system": "LPAR expressed endogenously in Xenopus laevis oocytes",
  "test": "Current response of oocytes to LPA stimulation (two-electrode voltage clamp)",
  "type": "cell-based",
  "conditions": "1 nM LPA; for Response to LPA, Average: average of six cells, −60 mV; for Response to LPA (difference between current value before LPA stimulation and peak current value after): individual cells, membrane potential fixed to −60 mV",
  "from_the_text": "First, an ovary is extracted from a female Xenopus laevis by a conventional method, and oocytes are isolated from the ovary by an enzymic treatment or the like. Oocytes not suitable for experiments are removed by a microscopic observation of their appearances such as size, shape, color and pattern. From the remaining group of oocytes, several cells, preferably 3 to 10 cells, more preferably 4 to 7 cells, and most preferably 6 cells are extracted at random. The membrane potential of the extracted oocytes is fixed to a constant voltage, for example, […] to −40 mV or +20 mV to +60 mV, preferably −60 mV by a known method such as two-electrode voltage clamp method or patch clamp method (See, e.g., Shin pacchikuranpu jikkengijutuhou, ed. Okada Yasunobu, Yoshiokashoten, Joron Ion Chaneru, pp. 1-14). By fixing the membrane potential, it is possible to measure the ionic current passing through channels or transporters of electrically resistant nature.\nTo the oocyte after fixing to a certain potential was added about 1 pM to 10 μM, preferably 100 pM to 100 nM, and most preferably 10 nM of LPA, followed by measurement of current response of the oocyte. An average current response is determined for a group of oocytes measured where the current response to LPA stimulation is the difference between the peak current value before LPA addition and the peak current value after LPA addition, providing the response of GPCR for a group of oocytes containing a brood of oocytes. A group of oocytes having a response of GPCR higher than a certain desirable value or within a certain desirable range are selected. The oocytes belonging to the group of oocytes selected in this way originate from a mother, and therefore, each oocyte has genetically nearly equal response of GPCR and may be considered excellent in response of GPCR.\nOvaries were extracted from mother bodies A, B, and C, and their follicle cells were removed by a conventional method. The oocytes after removal of follicles were selected based on their appearances that seemed suitable for experiments, and groups of oocytes were saved separately for each mother body (batches A, B, and C). From each batch, six oocytes were extracted at random, respectively.\nThe membrane potential of each cell was fixed to −60 mV by the two-electrode voltage clamp method. Each cell was stimulated by 1 nM LPA, and then the current response was measured. The difference between the current value before LPA stimulation and the peak current value after LPA stimulation was determined for each cell and shown in Table 1. There were differences in the responses to LPA among the batches.",
  "note": "Where “and” joins values, the source holds several entries; their conditions need not be identical. Equal values may be shown once.",
  "data": [
    {"substance": "Lysophosphatidic acid [LPA]", "values": [
      {"measurement": "Response to LPA, Average", "setting": "Batch A oocytes", "result": 0.8, "unit": "μA"},
      {"measurement": "Response to LPA (difference between current value before LPA stimulation and peak current value after)", "setting": "Batch A oocytes", "result": "1.1 μA and 1.5 μA and 0.6 μA (2×) and 0.3 μA and 0.8 μA"},
      {"measurement": "Response to LPA, Average", "setting": "Batch B oocytes", "result": 2.0, "unit": "μA"},
      {"measurement": "Response to LPA (difference between current value before LPA stimulation and peak current value after)", "setting": "Batch B oocytes", "result": "2.5 μA and 1.8 μA and 2.6 μA and 1.1 μA and 2.3 μA and 1.4 μA"},
      {"measurement": "Response to LPA, Average", "setting": "Batch C oocytes", "result": 0.2, "unit": "μA"},
      {"measurement": "Response to LPA (difference between current value before LPA stimulation and peak current value after)", "setting": "Batch C oocytes", "result": "0.1 μA (2×) and 0.3 μA and 0.4 μA and 0.0 μA and 0.2 μA"}
    ]}
  ]
}
